Assay results: paper PMC7395068, “The evolution of strategies to minimise the risk of human drug-induced liver injury (DILI) in drug discovery and development” (Archives of Toxicology, 2020)
Like-named read-outs stand apart in the source and are kept apart here.

Columns and labels:
[1] = read-out: Human plasma Cmax; total plasma Cmax.tot, median of 9 literature references; cited from earlier work
[2] = tested on: HepG2 C3A spheroid, BSEP, Glu/Gal in HepG2 cells, bioactivation; details: cited from earlier work; for Bayesian Machine Learning DILI prediction, Williams (2019): Bayesian modeling, ref Williams et al. 2019; for Bayesian Machine Learning: In vitro Assay, ref Williams 2019
[3] = Plasma free fraction (fu) and unbound Cmax (Cmax,u); assay type: in vitro ADME, human; details: unbound plasma Cmax
[4] = tested on: THLE-Null and THLE-3A4 cells; details: In vitro Assay; ref Gustafsson 2014; cited from earlier work
[5] = tested on: THLE or HepG2 cells, isolated mitochondria, BSEP; details: cited from earlier work
HepaRG spheroids = test: Combined HCI (HCS) and cellular ATP 3D assay in HepaRG spheroids; details: for HepaRG <25x Avg Cmax ATP / HepaRG <100x Avg Cmaxu ATP: ATP endpoint; for HepaRG <25x Avg Cmax ATP / HepaRG <25x Avg Cmax HCS / HepaRG <25x Avg Cmax All: cut-off <25x Avg Cmax; for HepaRG <100x Avg Cmaxu ATP / HepaRG <100x Avg Cmaxu HCS / HepaRG <100x Avg Cmaxu All: cut-off <100x Avg Cmaxu; for HepaRG <25x Avg Cmax HCS / HepaRG <100x Avg Cmaxu HCS: HCS endpoints; for HepaRG <25x Avg Cmax All: all endpoints (ATP and HCS); for HepaRG Cmax max All / HepaRG Cmax min All / HepaRG <10 uM All / HepaRG <100x Avg Cmaxu All: all endpoints; for HepaRG Cmax max All: Cmax max used; for HepaRG Cmax min All: Cmax min used; for HepaRG <10 uM All: cut-off <10 uM; for AC50 / minimal effective concentration: Homo sapiens; for HepaRG <25x Avg Cmax ATP / HepaRG <100x Avg Cmaxu ATP / HepaRG <25x Avg Cmax HCS / HepaRG <100x Avg Cmaxu HCS / HepaRG <25x Avg Cmax All / HepaRG Cmax max All / HepaRG Cmax min All / HepaRG <10 uM All / HepaRG <100x Avg Cmaxu All / AC50 / minimal effective concentration: HepaRG; for DILI prediction HepaRG spheroids (HCS-MEC): Microtissue model structural based (HCI), combined HCS and ATP, MEC < 25 × Cmax.tot cut-off
rBsep = details: In vitro Assay; ref Dawson 2012; cited from earlier work
[6] = plasma free fraction; cited from earlier work
hLiMTs [7] = test: Combined HCI (HCS) and cellular ATP 3D assay in hLiMTs; details: for AC50 / minimal effective concentration: Homo sapiens; for DILI prediction hLiMTs (HCS-MEC): Microtissue model structural based (HCI), combined HCS and ATP, MEC < 25 × Cmax.tot cut-off; for hLiMTs <25x Avg Cmax ATP / hLiMTs <100x Avg Cmaxu ATP: ATP endpoint; for hLiMTs <25x Avg Cmax ATP / hLiMTs <25x Avg Cmax HCS / hLiMTs <25x Avg Cmax All: cut-off <25x Avg Cmax; for hLiMTs <100x Avg Cmaxu ATP / hLiMTs <100x Avg Cmaxu HCS / hLiMTs <100x Avg Cmaxu All: cut-off <100x Avg Cmaxu; for hLiMTs <25x Avg Cmax HCS / hLiMTs <100x Avg Cmaxu HCS: HCS endpoints; for hLiMTs <25x Avg Cmax All: all endpoints (ATP and HCS); for hLiMTs Cmax max All / hLiMTs Cmax min All / hLiMTs <10 uM All / hLiMTs <100x Avg Cmaxu All: all endpoints; for hLiMTs Cmax max All: Cmax max used; for hLiMTs Cmax min All: Cmax min used; for hLiMTs <10 uM All: cut-off <10 uM
PHH spheroids = details: cited from earlier work; for hLiMTs ATP <20 x Cmax: In vitro Assay, ref Vorrink 2018
[8] = tested on: HepG2 cells, primary human hepatocytes; details: In vitro Assay; ref Garside 2014; cited from earlier work
[9] = tested on: isolated mouse liver mitochondria; details: In vitro Assay; ref Porceddu 2012; cited from earlier work
human hepatocytes = details: cited from earlier work; for Structural based (HCI): In vitro Assay, ref Xu 2008; for DILI in vitro assay prediction, Xu (2008): Structural based (HCI), human hepatocytes, ref Xu et al. 2008
PHH = details: cited from earlier work
hLiMTs [10] = details: cited from earlier work
[11] = cited from earlier work
[12] = cited from earlier work; remark: listed apart in the source
[13] = Modeled in vitro assays (cytotoxicity, mitochondrial dysfunction, BSEP), ref Aleo et al. 2019
[14] = In vitro Assay, ref Proctor 2017

CN1CCN(C2=Nc3cc(Cl)ccc3Nc3ccccc32)CC1 [clozapine]
Cmax [1]: 2450 nM | Bayesian Machine Learning DILI prediction, Williams (2019) [2]: +VE | Bayesian Machine Learning [2]: +VE | Human plasma Cmax,u [3]: 0.073 µM | THLE-Null [4]: -VE | Partition Hybrid HRM Score ([5]; In vitro Assay, ref Aleo 2019): +VE | Ro2 Hybrid HRM Score ([5]; In vitro Assay, ref Aleo 2019): +VE | Partition Hybrid HRM Score ≥4, Aleo (2019) [5, 13]: +VE (Partition Hybrid HRM Score ≥4) | Partition Hybrid HRM Score ≥8, Aleo (2019) [5, 13]: -VE | Rule of Two hybrid HRM Score ≥3, Aleo (2019) [5, 13]: +VE (Rule of Two hybrid HRM Score ≥3) | Rule of Two hybrid HRM Score ≥8, Aleo (2019) [5, 13]: -VE | HepaRG <25x Avg Cmax ATP (HepaRG spheroids): +ve | HepaRG <100x Avg Cmaxu ATP (HepaRG spheroids): -ve | HepaRG <25x Avg Cmax HCS (HepaRG spheroids): +ve | HepaRG <100x Avg Cmaxu HCS (HepaRG spheroids): +ve (<100x Avg Cmaxu) | HepaRG <25x Avg Cmax All (HepaRG spheroids): +ve | HepaRG Cmax max All (HepaRG spheroids): +ve | HepaRG Cmax min All (HepaRG spheroids): +ve | HepaRG <10 uM All (HepaRG spheroids): +ve (<10 uM) | HepaRG <100x Avg Cmaxu All (HepaRG spheroids): +ve (<100x Avg Cmaxu) | AC50 (HepaRG spheroids; read-out: ATP endpoint AC50): 16.6 µM | minimal effective concentration (HepaRG spheroids; read-out: ATP endpoint MEC): 13.1 µM | AC50 (HepaRG spheroids; read-out: HCS endpoint AC50): 13.2 µM | minimal effective concentration (HepaRG spheroids; read-out: HCS endpoint MEC): 4.66 µM | DILI prediction HepaRG spheroids (HCS-MEC) (HepaRG spheroids): +VE (MEC < 25 × Cmax.tot cut-off) | Inhibition of rBsep cutoff<1& cmax u>.2 (rBsep): -VE | Inhibition of rBsep cutoff<3 (rBsep): +VE | fu [6]: 0.030 | AC50 (hLiMTs [7]; read-out: ATP endpoint AC50): 14 µM | minimal effective concentration (hLiMTs [7]; read-out: ATP endpoint MEC): 10.5 µM | AC50 (hLiMTs [7]; read-out: HCS endpoint AC50): 15.2 µM | minimal effective concentration (hLiMTs [7]; read-out: HCS endpoint MEC): 5.61 µM | DILI prediction hLiMTs (HCS-MEC) (hLiMTs [7]): +VE (MEC < 25 × Cmax.tot cut-off) | hLiMTs <25x Avg Cmax ATP (hLiMTs [7]): +ve | hLiMTs <100x Avg Cmaxu ATP (hLiMTs [7]): -ve | hLiMTs <25x Avg Cmax HCS (hLiMTs [7]): +ve | hLiMTs <100x Avg Cmaxu HCS (hLiMTs [7]): +ve (<100x Avg Cmaxu) | hLiMTs <25x Avg Cmax All (hLiMTs [7]): +ve | hLiMTs Cmax max All (hLiMTs [7]): +ve | hLiMTs Cmax min All (hLiMTs [7]): +ve | hLiMTs <10 uM All (hLiMTs [7]): +ve (<10 uM) | hLiMTs <100x Avg Cmaxu All (hLiMTs [7]): +ve (<100x Avg Cmaxu) | hLiMTs ATP <20 x Cmax (PHH spheroids): +VE (IC20 < 20 × Cmax.tot cut-off)

COc1ccc2c(c1)c(CC(=O)O)c(C)n2C(=O)c1ccc(Cl)cc1 [indomethacin]
Cmax [1]: 8380 nM | Bayesian Machine Learning DILI prediction, Williams (2019) [2]: +VE | Bayesian Machine Learning [2]: +VE | Human plasma Cmax,u [3]: 0.084 µM | THLE-Null [4]: -VE | Cluster 1-6 +VE Assay [8]: -VE | HepaRG <25x Avg Cmax ATP (HepaRG spheroids): +ve | HepaRG <25x Avg Cmax HCS (HepaRG spheroids): +ve | HepaRG <25x Avg Cmax All (HepaRG spheroids): +ve | HepaRG Cmax max All (HepaRG spheroids): +ve | HepaRG Cmax min All (HepaRG spheroids): +ve | AC50 (HepaRG spheroids; read-out: ATP endpoint AC50): 94.2 µM | minimal effective concentration (HepaRG spheroids; read-out: ATP endpoint MEC): 79.2 µM | AC50 (HepaRG spheroids; read-out: HCS endpoint AC50): 215 µM | minimal effective concentration (HepaRG spheroids; read-out: HCS endpoint MEC): 23.8 µM | DILI prediction HepaRG spheroids (HCS-MEC) (HepaRG spheroids): +VE (MEC < 25 × Cmax.tot cut-off) | fu [6]: 0.010 | AC50 (hLiMTs [7]; read-out: ATP endpoint AC50): 9.29 µM | minimal effective concentration (hLiMTs [7]; read-out: ATP endpoint MEC): 4.54 µM | AC50 (hLiMTs [7]; read-out: HCS endpoint AC50): 672 µM | minimal effective concentration (hLiMTs [7]; read-out: HCS endpoint MEC): 95.2 µM | DILI prediction hLiMTs (HCS-MEC) (hLiMTs [7]): +VE (MEC < 25 × Cmax.tot cut-off) | hLiMTs <25x Avg Cmax ATP (hLiMTs [7]): +ve | hLiMTs <25x Avg Cmax HCS (hLiMTs [7]): +ve | hLiMTs <25x Avg Cmax All (hLiMTs [7]): +ve | hLiMTs Cmax max All (hLiMTs [7]): +ve | hLiMTs Cmax min All (hLiMTs [7]): +ve | in vitro data EC2<=1x Cmax [9]: +VE | Structural based (HCI) (human hepatocytes): -VE | DILI in vitro assay prediction, Xu (2008) (human hepatocytes): -VE | hLiMTs ATP <20 x Cmax (PHH spheroids): +VE (IC20 < 20 × Cmax.tot cut-off)

CC(C)(C)NCC(O)COc1cccc2c1CC(O)C(O)C2 (centres unmarked) [nadolol]
PHH/100xCmax, Proctor (2017) (PHH; 2D PHH, ATP, IC50 < 100 × Cmax.tot, ref Proctor et al. 2017): -VE | PHH/100uM, Proctor (2017) (PHH; 2D PHH, ATP, IC50 threshold 100 µM, ref Proctor et al. 2017): -VE | PHH ATP <100uM (PHH; [14]): -VE | hLiMTs ATP <100uM (hLiMTs [10]; [14]): -VE | hLiMTs/100xCmax, Proctor (2017) (hLiMTs [10]; hLiMTs, ATP, IC50 < 100 × Cmax.tot, ref Proctor et al. 2017): -VE | hLiMTs/100uM, Proctor (2017) (hLiMTs [10]; hLiMTs, ATP, IC50 threshold 100 µM, ref Proctor et al. 2017): -VE | Cmax [1]: 420 nM | Bayesian Machine Learning DILI prediction, Williams (2019) [2]: -VE | Bayesian Machine Learning [2]: -VE | Human plasma Cmax,u [3]: 0.294 µM | DILI severity category (Chen et al. [2016]) ([11]; LTKB DILIrank category, ref Chen et al. 2016): Ambiguous | DILI severity category (Chen 2016) ([11]; human DILI classification, LTKB DILIrank, ref Chen et al. 2016): Ambiguous | DILI severity category ([11]; human DILI severity, ref Chen et al.): Ambiguous | DILI +VE (5-8), DILI -VE (-4) ([11]; ref Chen 2016): -VE | DILI severity category ([11]; ref Chen 2016): Ambiguous DILI-concern | Assigned DILI category ([12]; Chen et al. 2016 or literature alignment, ref Chen et al. 2016): 1 | In vivo DILI ([12]; ref Proctor 2017): -VE | In vivo DILI ([12]; ref Vorrink 2018): -VE | In vivo DILI ([12]; ref Williams 2019): -VE | In vivo DILI ([12]; ref Xu 2008): -VE | HepaRG <25x Avg Cmax ATP (HepaRG spheroids): -ve | HepaRG <100x Avg Cmaxu ATP (HepaRG spheroids): -ve | HepaRG <25x Avg Cmax HCS (HepaRG spheroids): -ve | HepaRG <100x Avg Cmaxu HCS (HepaRG spheroids): -ve | HepaRG <25x Avg Cmax All (HepaRG spheroids): -ve | HepaRG Cmax max All (HepaRG spheroids): -ve | HepaRG Cmax min All (HepaRG spheroids): -ve | HepaRG <10 uM All (HepaRG spheroids): -ve | HepaRG <100x Avg Cmaxu All (HepaRG spheroids): -ve | DILI prediction HepaRG spheroids (HCS-MEC) (HepaRG spheroids): -VE | fu [6]: 0.700 | DILI prediction hLiMTs (HCS-MEC) (hLiMTs [7]): -VE | hLiMTs <25x Avg Cmax ATP (hLiMTs [7]): -ve | hLiMTs <100x Avg Cmaxu ATP (hLiMTs [7]): -ve | hLiMTs <25x Avg Cmax HCS (hLiMTs [7]): -ve | hLiMTs <100x Avg Cmaxu HCS (hLiMTs [7]): -ve | hLiMTs <25x Avg Cmax All (hLiMTs [7]): -ve | hLiMTs Cmax max All (hLiMTs [7]): -ve | hLiMTs Cmax min All (hLiMTs [7]): -ve | hLiMTs <10 uM All (hLiMTs [7]): -ve | hLiMTs <100x Avg Cmaxu All (hLiMTs [7]): -ve | Structural based (HCI) (human hepatocytes): -VE | DILI in vitro assay prediction, Xu (2008) (human hepatocytes): -VE | hLiMTs ATP <20 x Cmax (PHH spheroids): -VE | DILI in vitro assay prediction, Vorrink (2018) (PHH spheroids; PHH spheroids, ATP, 14 days, IC20 < 20 × Cmax.tot, ref Vorrink et al. 2018): -VE
